In EP0029990A1, “Biphenylmethane derivative, methods for its production and pharmaceutical compositions containing it” (Byk Gulden Lomberg Chemische Fabrik GmbH, priority 1979, dated 1981):

Columns and labels:
[1] = Acute toxicity (LD50), intravenous administration, rat; conditions: in vivo
Description: (§1) Ihre Toxizität ist geringer als die des aus einem Gemisch von Kondensationsprodukten aus m-Kresolsulfonsäuren und Formaldehyd bestehenden Handelsprodukts. In der nachstehenden Tabelle sind die bei intravenöser Verabreichung an Maus und Ratte ermittelten LDSo-Werte des Dinatriumsalzes der 2,2'-Dihydroxy-5,5'-methylendi-(p-toluolsulfonsäure) (A) und des mit Natriumhydroxid neutralisierten Handelsprodukts (B) aufgeführt.

[2] = Acute toxicity (LD50), intravenous administration, mouse; conditions: in vivo
Description: as §1

**Q.** With `Cc1cc(O)c(S(=O)(=O)O)cc1Cc1cc(S(=O)(=O)O)c(O)cc1C` [A, Dinatrium-2,2'-dihydroxy-5,5'-methylendi-(p-toluolsulfonat)-monohydrat] as the compound, how does the LD50 ([1]; Ratte ♀) read?
**A.** 990 mg/kg

**Q.** And the LD50 ([1]; Ratte ♂)?
**A.** 930 mg/kg

**Q.** And the LD50 ([2]; Maus ♀)?
**A.** 1050 mg/kg

**Q.** What about the LD50 ([2]; Maus ♂) of the same compound?
**A.** 1100 mg/kg
